Literature values as cited in publication PMC7992119 (Structure (London, England : 1993), 2019).
Where no end group is shown, it is not given here. The star is where a group is joined. Octanoyl = CCCCCCCC(=O)*

Legend:
[1] = tested on: GHSR
[2] = tested on: ET-B; details: mutation of known crystal contacts; ref Shihoya et al., 2016
[3] = tested on: GHSR; details: ref Bednarek et al., 2000

Substance: ghrelin: 28-amino acid peptide with n-octanoylation at its Ser^3 residue (GSS(Octanoyl)FLSPEHQRVQQRKESKKPPAKLQPR; UniProt Q9UBU3 24-51, looked up)
- affinity of the C terminus for the receptor ([1]; C terminus of ghrelin (beyond residue 17), ref Bednarek et al., 2000): the C terminus has no affinity for the receptor and does not enhance ligand binding over truncated variants
- affinity to GHSR versus the membrane ([1]; qualitative statement, no reference given): much higher than to the membrane

Substance: endothelin-1
- maximal decrease of binding [2]: ≤ 10 fold

Substance: des-acyl ghrelin
- activity at GHSR of des-acyl versus lipidated form [3]: only the lipidated form is active at GHSR
